Results reported in patent US20250161216A1, “CATIONIC LIPID ANALOGUES, COMPOSITIONS AND USES THEREOF” (GUANGZHOU LIDE BIOMEDICINE TECHNOLOGY CO., LTD., priority 2022, published 2025).

Experiments:
C57BL/6 mice [1] = assay: In vivo expression level of Luciferase-mRNA delivered by intravenous injection (bioluminescence imaging); conditions: mRNA-loaded nanoparticles, intravenous (tail vein), 5 μg Luciferase-mRNA, 6 hours; for Fluorescence intensity of liver: compounds of Example 1
In short: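 Lipid nanoparticles carrying 5 μg Luciferase-mRNA given by tail-vein injection to 6-8-week-old C57BL/6 mice. At 6 h, 3 mg D-luciferin i.p. in PBS; bioluminescence imaged 10 min later as the expression read-out.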

C57BL/6 mice [2] = assay: In vivo expression level of Luciferase-mRNA delivered by intramuscular injection (bioluminescence imaging); conditions: mRNA-loaded nanoparticles, intramuscular (leg muscle), 5 μg Luciferase-mRNA, 6 hours
Protocol: Luciferase-mRNA was used as an mRNA model; and the cationic lipid analogues of Examples 1-5 were used to prepare drug-loaded nanoparticles according to the method of Example 6.
100 μL of nanoparticles containing 5 μg Luciferase-mRNA or the drug-loaded nanoparticles prepared above were injected into the leg muscles of 6-8 week-old C57BL/6 mice, and 200 μL of 1×PBS solution containing 3 mg D-Luciferin potassium salt was intraperitoneally injected into the mice 6 hours later. After waiting for 10 minutes, an in vivo expression level of the mRNA was evaluated by bioluminescence imaging.

For `CCCCCCCC/C=C\CCCCCCCC(=O)N(CCOC)C(C(=O)NCCN(C)CCNC(=O)C(C(C)C)N(CCOC)C(=O)CCCCCCC/C=C\CCCCCCCC)C(C)C` (stereo not shown) [A1I4R23C18-1], the “Fluorescence intensity of spleen” value (C57BL/6 mice [1]; compounds of Example 2) was 3.11E+05 and the Local fluorescence intensity (C57BL/6 mice [2]; compounds of Example 2) was 1.77E+05.

With `CCCCCCCCCCSSCCC(=O)N(CCOCCO)C(C(=O)NCCN(CCNC(=O)C(C(C)C)N(CCOCCO)C(=O)CCSSCCCCCCCCCC)CCNC(=O)C(C(C)C)N(CCOCCO)C(=O)CCSSCCCCCCCCCC)C(C)C` (stereo not shown) [A1I5R36S15] the “Fluorescence intensity of spleen” value (C57BL/6 mice [1]; compounds of Example 3) was 3.27E+06 and the Local fluorescence intensity (C57BL/6 mice [2]; compounds of Example 3) was 8.27E+04.

In the case of `CCCCCCCCCCCCCCCCCCNC(=O)C(C(CC)CCCC)N(CCCN1CCOCC1)C(=O)CCCCCCCCCCCCCCCCC` (stereo not shown) [A4I18R5C18], the “Fluorescence intensity of liver” value (C57BL/6 mice [1]) is reported as 2.68E+03 and the Local fluorescence intensity (C57BL/6 mice [2]; compounds of Example 1) is reported as 4.33E+05.

For `CCCCCCCCCCSSCCC(=O)N(CC(OC)OC)C(C(=O)NCCN(CCNC(=O)C(C(C)C)N(CC(OC)OC)C(=O)CCSSCCCCCCCCCC)CCNC(=O)C(C(C)C)N(CC(OC)OC)C(=O)CCSSCCCCCCCCCC)C(C)C` (stereo not shown) [A1I5R34S15], the “Fluorescence intensity of spleen” value (C57BL/6 mice [1]; compounds of Example 3) was 2.84E+05 and the Local fluorescence intensity (C57BL/6 mice [2]; compounds of Example 3) was 1.24E+06.

`CCCCCCCCCCSSCCC(=O)N(C1CCCCCC1)C(C(=O)NCCN(CCNC(=O)C(C(C)C)N(C(=O)CCSSCCCCCCCCCC)C1CCCCCC1)CCNC(=O)C(C(C)C)N(C(=O)CCSSCCCCCCCCCC)C1CCCCCC1)C(C)C` (stereo not shown) [A1I5R26S15] was tested, and the “Fluorescence intensity of spleen” value (C57BL/6 mice [1]; compounds of Example 3) was 1.30E+05 and the Local fluorescence intensity (C57BL/6 mice [2]; compounds of Example 3) was 9.90E+05.

In the case of `CCCCCCCCCCSSCCC(=O)N(CCCCCO)C(C(=O)NCCN(CCNC(=O)C(C(C)C)N(CCCCCO)C(=O)CCSSCCCCCCCCCC)CCNC(=O)C(C(C)C)N(CCCCCO)C(=O)CCSSCCCCCCCCCC)C(C)C` (stereo not shown) [A1I5R27S15], the “Fluorescence intensity of spleen” value (C57BL/6 mice [1]; compounds of Example 3) is reported as 7.96E+05 and the Local fluorescence intensity (C57BL/6 mice [2]; compounds of Example 3) is reported as 3.57E+05.

`CCCCC/C=C\C/C=C\CCCCCCCC(=O)N(CCCN1CCOCC1)C(C(=O)NCCCCCCCCCCCCCCCCCC)C(CC)CCCC` (stereo not shown) [A4I18R5C18-2] was tested, and the “Fluorescence intensity of liver” value (C57BL/6 mice [1]) was 8.34E+03 and the Local fluorescence intensity (C57BL/6 mice [2]; compounds of Example 1) was 4.99E+05.

For `CCCCCCCCCCCCCCCCCCNC(=O)C(C(C)C)N(CCCN1CCOCC1)C(=O)CCCCCCCCCCCCCCCCC` (stereo not shown) [A1I18R5C18], the “Fluorescence intensity of liver” value (C57BL/6 mice [1]) was 1.16E+03 and the Local fluorescence intensity (C57BL/6 mice [2]; compounds of Example 1) was 5.25E+04.

`CCCCCCCCCCCCCCCCCC(=O)N(CCOC)C(C(=O)NCCN(C)CCNC(=O)C(C1CCCCC1)N(CCOC)C(=O)CCCCCCCCCCCCCCCCC)C1CCCCC1` (stereo not shown) [A23I4R23C18] was tested, and the “Fluorescence intensity of spleen” value (C57BL/6 mice [1]; compounds of Example 2) was 1.49E+05 and the Local fluorescence intensity (C57BL/6 mice [2]; compounds of Example 2) was 5.32E+05.

`CCCCCCCCCCCCCCCCCC(=O)N(CCO)C(C(=O)NCCN(C)CCNC(=O)C(C(CC)CCCC)N(CCO)C(=O)CCCCCCCCCCCCCCCCC)C(CC)CCCC` (stereo not shown) [A4I4R22C18] was tested, and the “Fluorescence intensity of spleen” value (C57BL/6 mice [1]; compounds of Example 2) was 5.51E+05 and the Local fluorescence intensity (C57BL/6 mice [2]; compounds of Example 2) was 5.53E+05.

With `CCCCC/C=C\C/C=C\CCCCCCCC(=O)N(CCO)C(C(=O)NCCN(C)CCNC(=O)C(C(CC)CCCC)N(CCO)C(=O)CCCCCCC/C=C\C/C=C\CCCCC)C(CC)CCCC` (stereo not shown) [A4I4R22C18-2] the “Fluorescence intensity of spleen” value (C57BL/6 mice [1]; compounds of Example 2) was 2.61E+05 and the Local fluorescence intensity (C57BL/6 mice [2]; compounds of Example 2) was 4.66E+05.

For `CCCCCCCCCCSSCCC(=O)N(CCCCCCO)C(C(=O)NCCN(CCNC(=O)C(C(C)C)N(CCCCCCO)C(=O)CCSSCCCCCCCCCC)CCNC(=O)C(C(C)C)N(CCCCCCO)C(=O)CCSSCCCCCCCCCC)C(C)C` (stereo not shown) [A1I5R28S15], the “Fluorescence intensity of spleen” value (C57BL/6 mice [1]; compounds of Example 3) was 3.31E+06 and the Local fluorescence intensity (C57BL/6 mice [2]; compounds of Example 3) was 6.01E+05.

In the case of `CCCCC/C=C\C/C=C\CCCCCCCC(=O)N(CCN1CCCCC1)C(C(=O)NCCCCCCCCCCCCCCCCCC)C(C)C` (stereo not shown) [A1I18R12C18-2], the “Fluorescence intensity of liver” value (C57BL/6 mice [1]) is reported as 1.41E+03 and the Local fluorescence intensity (C57BL/6 mice [2]; compounds of Example 1) is reported as 3.38E+06.

With `CCCCCCCCCCSSCCC(=O)N(C(C)C(=O)OC)C(C(=O)NCCN(CCNC(=O)C(C(C)C)N(C(=O)CCSSCCCCCCCCCC)C(C)C(=O)OC)CCNC(=O)C(C(C)C)N(C(=O)CCSSCCCCCCCCCC)C(C)C(=O)OC)C(C)C` (stereo not shown) [A1I5R40S15] the “Fluorescence intensity of spleen” value (C57BL/6 mice [1]; compounds of Example 3) was 1.39E+04 and the Local fluorescence intensity (C57BL/6 mice [2]; compounds of Example 3) was 3.86E+05.

With `CCCCCCCCCCSSCCC(=O)N(CCCOCC)C(C(=O)NCCN(CCNC(=O)C(C(C)C)N(CCCOCC)C(=O)CCSSCCCCCCCCCC)CCNC(=O)C(C(C)C)N(CCCOCC)C(=O)CCSSCCCCCCCCCC)C(C)C` (stereo not shown) [A1I5R31S15] the “Fluorescence intensity of spleen” value (C57BL/6 mice [1]; compounds of Example 3) was 6.13E+05 and the Local fluorescence intensity (C57BL/6 mice [2]; compounds of Example 3) was 2.94E+06.

In the case of `CCCCCCCCCCSSCCC(=O)N(CS(=O)(=O)O)C(C(=O)NCCN(CCNC(=O)C(C(C)C)N(CS(=O)(=O)O)C(=O)CCSSCCCCCCCCCC)CCNC(=O)C(C(C)C)N(CS(=O)(=O)O)C(=O)CCSSCCCCCCCCCC)C(C)C` (stereo not shown) [A1I5R41S15], the “Fluorescence intensity of spleen” value (C57BL/6 mice [1]; compounds of Example 3) is reported as 4.22E+05 and the Local fluorescence intensity (C57BL/6 mice [2]; compounds of Example 3) is reported as 1.81E+05.

In the case of `CCCCC/C=C\C/C=C\CCCCCCCC(=O)N(CCO)C(C(=O)NCCN(C)CCNC(=O)C(C1CCCCC1)N(CCO)C(=O)CCCCCCC/C=C\C/C=C\CCCCC)C1CCCCC1` (stereo not shown) [A23I4R22C18-2], the “Fluorescence intensity of spleen” value (C57BL/6 mice [1]; compounds of Example 2) is reported as 6.10E+05 and the Local fluorescence intensity (C57BL/6 mice [2]; compounds of Example 2) is reported as 9.09E+05.
